Results from PubChem BioAssay (NCI).
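Interpolation was linear, between the two tested concentrations surrounding the appropriate level; five concentrations were tested over 48 hours in 96-well plates. Abbreviation: GI50, concentration required for 50% inhibition of growth. TGI denotes the concentration required for complete inhibition of growth.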

Assays:
Test in all cases: NCI tumour cell line growth inhibition, 48 h
IGROV1 ovarian = system: IGROV1 ovarian
786-0 renal = system: 786-0 renal
SF-268 CNS = system: SF-268 CNS
HL-60(TB) leukemia = system: HL-60(TB) leukemia
MOLT-4 leukemia = system: MOLT-4 leukemia
NCI/ADR-RES ovarian = system: NCI/ADR-RES ovarian
SK-MEL-28 melanoma = system: SK-MEL-28 melanoma
MDA-MB-435 = system: MDA-MB-435
OVCAR-8 ovarian = system: OVCAR-8 ovarian
SN12C renal = system: SN12C renal
RXF 393 renal = system: RXF 393 renal
MCF7 breast = system: MCF7 breast
HS 578T breast = system: HS 578T breast
DU-145 prostate = system: DU-145 prostate
MDA-MB-231 breast = system: MDA-MB-231 breast
SK-OV-3 ovarian = system: SK-OV-3 ovarian
SNB-75 CNS = system: SNB-75 CNS
TK-10 renal = system: TK-10 renal
MALME-3M melanoma = system: MALME-3M melanoma
CCRF-CEM leukemia = system: CCRF-CEM leukemia
SR leukemia = system: SR leukemia
HOP-62 NSCLC = system: HOP-62 NSCLC
SK-MEL-5 melanoma = system: SK-MEL-5 melanoma
SW-620 colon = system: SW-620 colon
A498 renal = system: A498 renal
BT-549 breast = system: BT-549 breast
SK-MEL-2 melanoma = system: SK-MEL-2 melanoma
COLO 205 colon = system: COLO 205 colon
NCI-H522 lung = system: NCI-H522 lung

## N#Cc1cnc2ccc(-c3cnc(N)nc3)cc2c1N1CCc2cc(F)c(Cl)cc21
IGROV1 ovarian
  TGI: 1260 nM
786-0 renal
  GI50: 425 nM
  TGI: 3950 nM
SF-268 CNS
  GI50: 437 nM
  TGI: 5280 nM
HL-60(TB) leukemia
  GI50: 705 nM
  TGI: 4380 nM
MOLT-4 leukemia
  GI50: 577 nM
  TGI: > 64600 nM
NCI/ADR-RES ovarian
  GI50: 827 nM
  TGI: 25900 nM
SK-MEL-28 melanoma
  GI50: 703 nM
  TGI: 6730 nM
MDA-MB-435
  GI50: 495 nM
  TGI: 3560 nM
OVCAR-8 ovarian
  GI50: 453 nM
  TGI: 13900 nM
SN12C renal
  GI50: 395 nM
  TGI: 14700 nM
RXF 393 renal
  GI50: 221 nM
  TGI: 1250 nM
MCF7 breast
  GI50: 300 nM
  TGI: 14000 nM
HS 578T breast
  GI50: 186 nM
  TGI: 774 nM
DU-145 prostate
  GI50: 510 nM
  TGI: > 39500 nM
MDA-MB-231 breast
  GI50: 450 nM
  TGI: 7930 nM
SK-OV-3 ovarian
  GI50: 391 nM
  TGI: 3690 nM
SNB-75 CNS
  GI50: 144 nM
  TGI: 834 nM
TK-10 renal
  GI50: 260 nM
  TGI: 2000 nM
MALME-3M melanoma
  GI50: 366 nM
  TGI: 2960 nM
CCRF-CEM leukemia
  GI50: 486 nM
  TGI: > 100000 nM
SR leukemia
  GI50: 329 nM
  TGI: > 19900 nM
HOP-62 NSCLC
  GI50: 434 nM
  TGI: > 21700 nM
SK-MEL-5 melanoma
  GI50: 1220 nM
  TGI: 2520 nM
SW-620 colon
  GI50: 977 nM
  TGI: 10800 nM
A498 renal
  GI50: 147 nM
  TGI: 552 nM
BT-549 breast
  GI50: 239 nM
  TGI: 1800 nM
SK-MEL-2 melanoma
  GI50: 531 nM
  TGI: 2020 nM
COLO 205 colon
  GI50: 795 nM
  TGI: 2850 nM
NCI-H522 lung
  GI50: 1270 nM
  TGI: 8080 nM
